Results from article PMC11382352 (Drug development research, 2019).
≈ marks a conversion by molar mass, not a printed value. Where two headings read alike, the source gives them in different places.

Test system: Mycobacterium tuberculosis H37Rv
Test: Microtiter dilution MIC assay in GAST-Fe and 7H9-based media
Format: cell-based
Details: for MIC (Gast/Fe) Week 2: GAST-Fe medium pH 6.6, read after week 2; for MIC (Gast/Fe) Week 1: GAST-Fe medium pH 6.6, read after week 1; for MIC: Mycobacterium tuberculosis, H37RV

SMILES | MIC (Gast/Fe) Week 2 | further results
c1ccc(NCc2ccc(Oc3ccccn3)cc2)cc1 [Compound 2a, N-(4-(pyridin-2-yloxy)benzyl) aniline] | 37 µM (≈ 10.2 µg/mL) | 
COc1cccc(NCc2ccc(Oc3ccccn3)cc2)c1 [Compound 2c, 3-methoxy-N-(4-(pyridin-2-yloxy)benzyl) aniline] | 37 µM (≈ 11.3 µg/mL) | 
Cc1ccc(NCc2ccc(Oc3ccccn3)cc2)cc1 [Compound 2d, 4-methyl-N-(4-(pyridin-2-yloxy)benzyl) aniline] |  | MIC (Gast/Fe) Week 1: 22 µM (≈ 6.39 µg/mL)
Clc1ccc(NCc2ccc(Oc3ccccn3)cc2)cc1 [Compound 2g, 4-chloro-N-(4-(pyridin-2-yloxy)benzyl) aniline] | 40 µM (≈ 12.4 µg/mL) | 
Clc1cccc(NCc2ccc(Oc3ccccn3)cc2)c1 [Compound 2h, 3-chloro-N-(4-(pyridin-2-yloxy)benzyl) aniline] | 40 µM (≈ 12.4 µg/mL) | 
Clc1ccccc1NCc1ccc(Oc2ccccn2)cc1 [Compound 2i, 2-chloro-N-(4-(pyridin-2-yloxy)benzyl) aniline] | 20 µM (≈ 6.22 µg/mL) | MIC (Gast/Fe) Week 1: 20 µM (≈ 6.22 µg/mL)
Fc1ccc(NCc2ccc(Oc3ccccn3)cc2)cc1 [Compound 2j, 4-fluoro-N-(4-(pyridin-2-yloxy)benzyl) aniline] | 25 µM (≈ 7.36 µg/mL) | 
Brc1cccc(NCc2ccc(Oc3ccccn3)cc2)c1 [Compound 2m, 3-bromo-N-(4-(pyridin-2-yloxy)benzyl) aniline] | 35 µM (≈ 12.4 µg/mL) | 
Oc1cc(Cl)ccc1Oc1ccc(Cl)cc1Cl [Triclosan, 2,4,4׳- trichloro- 2׳- hydroxy diphenyl ether, reference compound] |  | MIC (pH 6.6, read-out: MIC (Gast/Fe) Week 1): 43 µM (≈ 12.5 µg/mL); MIC (pH 6.6, read-out: MIC (Gast/Fe) Week 2): 43 µM (≈ 12.5 µg/mL); MIC (read-out: MIC (7H9/ADC/Tween) Week 1): 22 µM (≈ 6.37 µg/mL); MIC (read-out: MIC (7H9/ADC/Tween) Week 2): 43 µM (≈ 12.5 µg/mL)
